Source: patent publication US9682061B2, “Methods of treating bacterial infections using oritavancin” (THE MEDICINES COMPANY, priority 2009, dated 2017)
Converted amounts (≈) assume the structure as drawn. Where two headings read alike, the source gives them in different places.

How the values were obtained:
S. aureus ATCC 29213 = assay: Broth microdilution MIC with arithmetic drug dilutions; format: cell-based, Staphylococcus aureus; conditions: for MIC: Staphylococcus aureus
Experimental: (§1) Pooled sera from humans, mice and rats were obtained from Equitech-Bio (Kerrville, Tex.); pooled serum from beagle dogs was from Bioreclamation (Liverpool, N.Y.). ULTRA was prepared using Centricon Plus-50 ultrafilters (Millipore, Billerica, Mass.), whose molecular weight cutoff (50 kDa) excludes albumin. ORI stock solutions were prepared following CLSI M100-818 (Clinical and Laboratory Standards Institute. 2008. CLSI document M100-S18). Staphylococcus aureus ATCC 29213 was used as the test isolate at a final inoculum of ˜5×10^5 CFU/mL in both MIC and AUIC studies.
Arithmetic MICs: Broth microdilution MIC assays with Staphylococcus aureus ATCC 29213 were based on CLSI guidelines (Clinical and Laboratory Standards Institute, 2009, CLSI document M7-A7). Growth media were 95% serum:5% CAMHB and 95% serum ultrafiltrate:5% CAMHB. Arithmetic dilutions of oritavancin and comparators were used to increase precision of minimum inhibitory concentration (MIC) values relative to doubling dilutions. Percent binding in serum was calculated as follows: % Bound=(1−[mean MICultrafiltrate/mean MICserum]×100%

[1] = Serum protein binding estimated from MIC shift, serum vs serum ultrafiltrate (human); format: in vitro ADME; conditions: from mean MICs, broth microdilution, this study, read-out: % Bound (protein binding estimate) (converted)
From the text: (§2) Avid binding of oritavancin (ORI) to filtration and dialysis membranes renders most protein binding methodologies unsuitable. To control for any impact of serum components on bacterial growth and antibiotic activity, MIC shifts (from arithmetic drug dilutions) and area under the inhibitory curve (AUIC) shifts (from time-kill assays) were quantified in the presence of serum (SER) compared to SER ultrafiltrate (ULTRA; free of albumin) to estimate ORI binding to serum. In this manner, the extent of reduction in oritavancin activity in serum was related to its degree of serum protein binding. The method was benchmarked using daptomycin and ceftriaxone (Lee et al., Antimicrob Agents Chemother. 35:2505-2508 (1991); Schmidt et al., Antimicrob Agents Chemother. 52:3994-4000 (2008); Yuk et al., Clin Pharmacokinet. 17:223-235 (1989); McKay et al., Evaluation of oritavancin activity in vitro in the presence of human and mouse serum, abstr P1854. Abstr. 19th European Congress of Clinical Microbiology and Infectious Diseases. European Society of Clinical Microbiology and Infectious Diseases, Basel, Switzerland, May 16, 2009).
as §1
(§3) Arithmetic MICs: Broth microdilution MIC assays with Staphylococcus aureus ATCC 29213 were based on CLSI guidelines (Clinical and Laboratory Standards Institute, 2009, CLSI document M7-A7). Growth media were 95% serum:5% CAMHB and 95% serum ultrafiltrate:5% CAMHB. […] Percent binding in serum was calculated as follows: % Bound=(1−[mean MICultrafiltrate/mean MICserum]×100%

[2] = Serum protein binding estimated from MIC shift, serum vs serum ultrafiltrate (mouse); format: in vitro ADME; conditions: mouse serum; from mean MICs, broth microdilution; this study; read-out: % Bound (protein binding estimate) (converted)
From the text: as §2, §1, §3

[3] = Serum protein binding estimated from MIC shift, serum vs serum ultrafiltrate (rat); format: in vitro ADME; conditions: from mean MICs, broth microdilution, this study, read-out: % Bound (protein binding estimate) (converted)
From the text: as §2, §1, §3

[4] = Serum protein binding estimated from MIC shift, serum vs serum ultrafiltrate (dog); format: in vitro ADME; conditions: beagle dog serum; from mean MICs, broth microdilution; this study; read-out: % Bound (protein binding estimate) (converted)
From the text: as §2, §1, §3

[5] = Serum protein binding from time-kill AUIC shift, serum vs serum ultrafiltrate (human); format: in vitro ADME; conditions: pooled human serum compared with serum ultrafiltrate, read-out: Protein binding from area under the bacterial kill curves (converted)
From the text: as §2, §1
(§4) AUIC studies: Time-kill studies were performed using S. aureus ATCC 29213 at a final inoculum of 1×10^6 CFU/mL in 95% serum:5% CAMHB and in 95% serum ultrafiltrate:5% CAMHB. […] The AUIC was calculated using GraphPad Prism software. Percent binding in serum was calculated as follows: % Bound=(1−[AUICultrafiltrate/AUICserum]×100%

[6] = Serum protein binding from time-kill AUIC shift, serum vs serum ultrafiltrate (mouse); format: in vitro ADME; conditions: pooled mouse serum compared with serum ultrafiltrate, read-out: Protein binding from area under the bacterial kill curves (converted)
From the text: as §2, §1, §4

[7] = Serum protein binding from MIC shift, summary across species; format: in vitro ADME, human, mouse, rat, dog; conditions: beagle (dog); human, mouse, rat, dog serum; MIC shift; read-out: Mean serum protein binding, range for the four species tested
From the text: as §2, §1, §3

serum protein = assay: as above; format: in vitro ADME, human, mouse, rat, dog; conditions: cross-species comparative study and concordant data
From the text: as §2, §1, §3

[8] = Protein binding estimates from time kill-based assays, summary; format: in vitro ADME; conditions: human, mouse, pooled serum compared with serum ultrafiltrate; this study; summary value
From the text: Avid binding of oritavancin (ORI) to filtration and dialysis membranes renders most protein binding methodologies unsuitable. To control for any impact of serum components on bacterial growth and antibiotic activity, MIC shifts (from arithmetic drug dilutions) and area under the inhibitory curve (AUIC) shifts (from time-kill assays) were quantified in the presence of serum (SER) compared to SER ultrafiltrate (ULTRA; free of albumin) to estimate ORI binding to serum. In this manner, the extent of reduction in oritavancin activity in serum was related to its degree of serum protein binding. […]
as §4

human plasma [9] = conditions: broth microdilution, various concentrations, Zhanel et al. 1998; cited from earlier work
human plasma [10] = conditions: DCC adsorption, 1-91 μg/ml, Rowe and Brown 2001; cited from earlier work
human serum = conditions: broth microdilution, various concentrations, Craig, unpublished; cited from earlier work
Albumin = Albumin (Homo sapiens, UniProt P02768); conditions: cantilever nanosensor, 0.2 μg/ml, McKendry, unpublished; cited from earlier work
Chain of Albumin (P02768 25-609): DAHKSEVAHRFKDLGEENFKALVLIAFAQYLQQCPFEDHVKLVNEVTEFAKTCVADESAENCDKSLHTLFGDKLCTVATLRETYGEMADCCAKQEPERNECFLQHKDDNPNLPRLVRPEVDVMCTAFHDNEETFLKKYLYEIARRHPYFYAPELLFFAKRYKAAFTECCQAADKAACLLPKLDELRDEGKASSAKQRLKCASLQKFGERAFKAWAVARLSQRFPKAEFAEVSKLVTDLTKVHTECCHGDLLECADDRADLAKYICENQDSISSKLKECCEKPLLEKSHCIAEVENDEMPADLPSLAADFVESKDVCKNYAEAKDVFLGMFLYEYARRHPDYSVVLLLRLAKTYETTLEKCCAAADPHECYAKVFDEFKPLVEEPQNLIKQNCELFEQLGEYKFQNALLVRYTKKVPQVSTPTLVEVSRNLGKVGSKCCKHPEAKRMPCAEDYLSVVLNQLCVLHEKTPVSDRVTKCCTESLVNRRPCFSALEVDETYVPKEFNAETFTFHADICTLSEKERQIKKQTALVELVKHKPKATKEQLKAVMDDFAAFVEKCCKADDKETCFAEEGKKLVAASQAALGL

mouse serum = conditions: broth microdilution, various concentrations, Craig, unpublished; cited from earlier work
rat plasma = conditions: broth microdilution, various concentrations, cited from earlier work
[11] = test system: exponentially-growing S. aureus (MSSA, MRSA, VRSA); conditions: within 15 minutes to 2 hours; against MSSA, MRSA, and VRSA; McKay et al. 2009; cited from earlier work

CN[C@H](CC(C)C)C(=O)N[C@H]1C(=O)N[C@@H](CC(N)=O)C(=O)N[C@H]2C(=O)N[C@H]3C(=O)N[C@H](C(=O)N[C@H](C(=O)O)c4cc(O)cc(O)c4-c4cc3ccc4O)[C@H](O[C@H]3C[C@](C)(N)[C@@H](O)[C@H](C)O3)c3ccc(c(Cl)c3)Oc3cc2cc(c3O[C@@H]2O[C@H](CO)[C@@H](O)[C@H](O)[C@H]2O[C@H]2C[C@](C)(NCc3ccc(-c4ccc(Cl)cc4)cc3)[C@@H](O)[C@H](C)O2)Oc2ccc(cc2Cl)[C@H]1O [Oritavancin, N-(4-(4-chlorophenyl)benzyl)A82846B]
MIC (S. aureus ATCC 29213; ATCC29213, read-out: MIC, CAMHB, mean, cation-adjusted Mueller-Hinton broth, CLSI conditions, Dog): 0.08 µg/mL (≈ 0.0446 µM) | MIC (S. aureus ATCC 29213; ATCC29213, read-out: MIC, CAMHB, mean, cation-adjusted Mueller-Hinton broth, CLSI conditions, Human): 0.084 µg/mL (≈ 0.0468 µM) | MIC (S. aureus ATCC 29213; ATCC29213, read-out: MIC, CAMHB, mean, cation-adjusted Mueller-Hinton broth, CLSI conditions, Mouse): 0.105 µg/mL (≈ 0.0586 µM) | MIC (S. aureus ATCC 29213; ATCC29213, read-out: MIC, CAMHB, mean, cation-adjusted Mueller-Hinton broth, CLSI conditions, Rat): 0.086 µg/mL (≈ 0.048 µM) | MIC (S. aureus ATCC 29213; ATCC29213, read-out: MIC, Serum, mean, 95% dog serum + 5% CAMHB): 0.475 µg/mL | MIC (S. aureus ATCC 29213; ATCC29213, read-out: MIC, Serum, mean, 95% human serum + 5% CAMHB): 0.775 µg/mL | MIC (S. aureus ATCC 29213; ATCC29213, read-out: MIC, Serum, mean, 95% mouse serum + 5% CAMHB): 0.538 µg/mL | MIC (S. aureus ATCC 29213; ATCC29213, read-out: MIC, Serum, mean, 95% rat serum + 5% CAMHB): 0.313 µg/mL | MIC (S. aureus ATCC 29213; ATCC29213, read-out: MIC, Ultrafiltrate, mean, 95% dog serum ultrafiltrate + 5% CAMHB): 0.061 µg/mL | MIC (S. aureus ATCC 29213; ATCC29213, read-out: MIC, Ultrafiltrate, mean, 95% human serum ultrafiltrate + 5% CAMHB): 0.14 µg/mL | MIC (S. aureus ATCC 29213; ATCC29213, read-out: MIC, Ultrafiltrate, mean, 95% mouse serum ultrafiltrate + 5% CAMHB): 0.079 µg/mL | MIC (S. aureus ATCC 29213; ATCC29213, read-out: MIC, Ultrafiltrate, mean, 95% rat serum ultrafiltrate + 5% CAMHB): 0.055 µg/mL | Mean Fold MIC Increase (S. aureus ATCC 29213; mean MIC in 95% dog serum / mean MIC in 95% dog serum ultrafiltrate): 7.8 fold | Mean Fold MIC Increase (S. aureus ATCC 29213; mean MIC in 95% human serum / mean MIC in 95% human serum ultrafiltrate): 5.5 fold | Mean Fold MIC Increase (S. aureus ATCC 29213; mean MIC in 95% mouse serum / mean MIC in 95% mouse serum ultrafiltrate): 6.8 fold | Mean Fold MIC Increase (S. aureus ATCC 29213; mean MIC in 95% rat serum / mean MIC in 95% rat serum ultrafiltrate): 5.7 fold | fraction unbound [1]: 0.181 | fraction unbound [2]: 0.147 | fraction unbound [3]: 0.176 | fraction unbound [4]: 0.129 | fraction unbound at 0.5 μg/ml ([5]; 0.5 μg/ml oritavancin): 0.326 | fraction unbound at 1 μg/ml ([5]; 1 μg/ml oritavancin): 0.361 | fraction unbound at 2 μg/ml ([5]; 2 μg/ml oritavancin): 0.383 | fraction unbound at 0.5 μg/ml ([6]; 0.5 μg/ml oritavancin): 0.335 | fraction unbound at 1 μg/ml ([6]; 1 μg/ml oritavancin): 0.317 | fraction unbound at 2 μg/ml ([6]; 2 μg/ml oritavancin): 0.312 | fraction unbound [7]: 0.129 to 0.181 | Bound to serum protein, overall conclusion across species (serum protein): approximately 85% | fraction unbound [8]: ~0.35 | Protein Binding (human plasma [9]): 87.5% | Protein Binding (human plasma [10]): 85.7-89.9% | Protein Binding (human serum): 79.6% | Protein Binding (Albumin): 79 ± 0.2% | Protein Binding (mouse serum): 85.2% | Protein Binding (rat plasma; Zhanel et al. 1998, listed as oritavancin): greater than 80% | Protein Binding (rat plasma; Zhanel et al. 1998): >80% | Bactericidal activity, log reduction [11]: ≥ 3 log
